# Results reported in US20240116985A1, “STAPLED PEPTIDES AND METHODS THEREOF” (priority 2020, published 2024).
# Like-named read-outs stand apart in the source and are kept apart here.
# Experiments:
# [1] = target: T1, full-length beta-Catenin (Uniprot ID P35222) (Homo sapiens, UniProt P35222); assay: Fluorescence polarization IC50 (beta-catenin / 5FAM-TCF4 10-53 competition); format: binding; details: read-out: beta-Catenin FP IC50
# T1 construct: 10 nM full-length beta-Catenin (Uniprot ID P35222)
# T1 sequence (P35222 1-781): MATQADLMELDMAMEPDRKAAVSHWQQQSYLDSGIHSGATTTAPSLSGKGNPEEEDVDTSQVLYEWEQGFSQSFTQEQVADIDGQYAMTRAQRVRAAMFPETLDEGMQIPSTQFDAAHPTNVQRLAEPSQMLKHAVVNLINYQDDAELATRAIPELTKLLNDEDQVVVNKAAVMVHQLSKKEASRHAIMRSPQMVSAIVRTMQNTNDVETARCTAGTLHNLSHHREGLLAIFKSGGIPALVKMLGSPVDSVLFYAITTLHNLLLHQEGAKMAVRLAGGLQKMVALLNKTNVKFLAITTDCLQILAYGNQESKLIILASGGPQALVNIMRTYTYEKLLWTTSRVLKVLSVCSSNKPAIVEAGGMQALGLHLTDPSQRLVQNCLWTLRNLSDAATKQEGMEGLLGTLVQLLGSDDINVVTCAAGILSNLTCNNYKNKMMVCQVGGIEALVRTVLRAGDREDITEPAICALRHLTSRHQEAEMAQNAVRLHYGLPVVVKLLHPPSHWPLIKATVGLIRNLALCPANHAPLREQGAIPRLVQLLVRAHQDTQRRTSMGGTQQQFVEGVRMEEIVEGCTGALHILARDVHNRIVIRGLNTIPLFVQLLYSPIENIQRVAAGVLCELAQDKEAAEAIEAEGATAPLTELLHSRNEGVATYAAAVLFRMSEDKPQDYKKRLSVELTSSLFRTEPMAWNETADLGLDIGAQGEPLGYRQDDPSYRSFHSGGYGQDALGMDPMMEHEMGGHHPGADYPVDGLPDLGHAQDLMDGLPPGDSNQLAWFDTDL
# CHI Log D procedure = format: physicochemical; details: for chromatographic logD / logD: pH 7.4, CHI Log D; for CHI Log D: pH 7.4
# Solubility in PBS = format: physicochemical
# Outline: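 HPLC quantitation of peptide remaining in the PBS supernatant after ultracentrifugation, referenced to a 50 μM solution in DMSO.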
logD (CHI Log D procedure),Solubility (Solubility in PBS) [µM],Compound,other results
–,–,"CC(=O)N1CCC[C@]12CC=CCCCC1(CCCC=CCCCCCC[C@@](C)(C(=O)N[C@@H](Cc3ccccc3)C(=O)N[C@@H](Cc3c[nH]c4ccccc34)C(=O)N[C@@H](CCC(N)=O)C(N)=O)NC(=O)[C@H](C(C)C)NC(=O)C(Cc3cncn3C)NC(=O)[C@H](C)NC(=O)[C@H](C)NC(=O)[C@H](CC(=O)O)NC(=O)[C@H](CC(=O)O)NC1=O)NC(=O)[C@H](C)NC(=O)[C@H](CC(=O)O)NC2=O (single isomer, unassigned) [I-331, Ac-PL3-Asp-Ala-B5-Asp-Asp-Ala-Ala-3meH-Val-S8-Phe-Trp-Gln-NH2]",IC50 ([1]; Table E2-1): 5000 nM; chromatographic logD (CHI Log D procedure): 2.02; solubility at 15 min (Solubility in PBS; Solubility (uM)): 41 µM
–,–,"CC(=O)N1CCC[C@]12CC=CCCCC1(CCCC=CCCCCCC[C@@](C)(C(=O)N[C@@H](Cc3ccccc3)C(=O)N[C@@H](Cc3csc4ccccc34)C(=O)NC(Cc3cncn3C)C(N)=O)NC(=O)[C@H](CC(N)=O)NC(=O)[C@H](Cc3ccccc3)NC(=O)[C@H](C)NC(=O)[C@H](C)NC(=O)[C@H](CCC(=O)O)NC(=O)[C@H](CC(=O)O)NC1=O)NC(=O)[C@H](C)NC(=O)[C@H](CC(=O)O)NC2=O (single isomer, unassigned) [I-480, Ac-PL3-Asp-Ala-B5-Asp-Glu-Ala-Ala-Phe-Asn-S8-Phe-BztA-3MeH-NH2]",IC50 ([1]; fluorescence polarization): 176 nM; chromatographic logD (CHI Log D procedure): 2.1; solubility at 15 min (Solubility in PBS; Solubility (uM)): 36 µM
–,–,"CC(=O)N1CCC[C@]12CC=CCCCC1(CCCC=CCCCCCC[C@@](C)(C(=O)N[C@@H](Cc3ccccc3)C(=O)N[C@@H](Cc3csc4ccccc34)C(=O)NC(Cc3cncn3C)C(N)=O)NC(=O)[C@H](CC(N)=O)NC(=O)[C@H](Cc3ccccc3)NC(=O)[C@H](C)NC(=O)[C@H](C)NC(=O)[C@H](CCC(=O)O)NC(=O)[C@H](CC(=O)O)NC1=O)NC(=O)[C@H](C)NC(=O)[C@H](CC(=O)O)NC2=O (single isomer, unassigned) [I-481, Ac-PL3-Asp-Ala-B5-Asp-Glu-Ala-Ala-Phe-Asn-S8-Phe-BztA-3MeH-NH2]",IC50 ([1]; fluorescence polarization): 42 nM; CHI Log D (CHI Log D procedure): 2.133; Solubility (Solubility in PBS; 15 min): 30 µM
1.91,10,"CC(=O)N1CCC[C@]12CC=CCCCC1(CCCC=CCCCOC(=O)N3CC[C@@](C(=O)N[C@@H](Cc4ccsc4)C(=O)N[C@@H](Cc4csc5ccccc45)C(=O)N[C@@H](CCC(N)=O)C(N)=O)(C3)NC(=O)[C@H](Cc3ccccc3)NC(=O)[C@H](Cc3ccccc3)NC(=O)[C@H](C)NC(=O)[C@H](CCCCNC(=O)c3ccc(-n4cc(CNC(=O)c5ccc6c(c5)C5(OC6=O)c6ccc(O)cc6Oc6cc(O)ccc65)nn4)cc3)NC(=O)[C@H](CC(C)C)NC(=O)[C@H](CC(=O)O)NC1=O)NC(=O)[C@H](CC(C)(C)C)NC(=O)[C@H](CC(=O)O)NC2=O (stereo partly drawn) [I-869, Ac-PL3-Asp-Npg-B5-Asp-Leu-[FAM6Ppg][p1TB]Lys-Ala-Phe-Phe-PyrS2-3Thi-BztA-Gln-NH2]",–
1.99,–,"CC(=O)N1CCC[C@]12CC=CCCCC1(CCCC=CCCCOC(=O)N3CC[C@@](C(=O)N[C@@H](Cc4ccsc4)C(=O)N[C@@H](Cc4csc5ccccc45)C(=O)N[C@@H](CCC(N)=O)C(=O)N[C@@H](C)C(=O)N[C@@H](C)C(=O)N[C@@H](C)C(N)=O)(C3)NC(=O)[C@H](CC(N)=O)NC(=O)[C@H](Cc3ccccc3)NC(=O)[C@H](C)NC(=O)[C@H](C)NC(=O)[C@H](CC(=O)O)NC(=O)[C@H](CC(=O)O)NC1=O)NC(=O)[C@H](CC(C)(C)C)NC(=O)[C@H](CC(=O)O)NC2=O (stereo partly drawn) [I-870, Ac-PL3-Asp-Npg-B5-Asp-Asp-Ala-Ala-Phe-Asn-PyrS2-3Thi-BztA-Gln-Ala-Ala]",Solubility (Solubility in PBS; Solubility (uM)): 47 µM
1.92,–,"CC(=O)N1CCC[C@]12CC=CCCCC1(CCCC=CCCCOC(=O)N3CC[C@@](C(=O)N[C@@H](Cc4ccsc4)C(=O)N[C@@H](Cc4csc5ccccc45)C(=O)N[C@@H](CCC(N)=O)C(=O)N[C@H](C)C(=O)N[C@@H](C)C(=O)N[C@@H](C)C(N)=O)(C3)NC(=O)[C@H](CC(N)=O)NC(=O)[C@H](Cc3ccccc3)NC(=O)[C@H](C)NC(=O)[C@H](C)NC(=O)[C@H](CC(=O)O)NC(=O)[C@H](CC(=O)O)NC1=O)NC(=O)[C@H](CC(C)(C)C)NC(=O)[C@H](CC(=O)O)NC2=O (stereo partly drawn) [I-871, Ac-PL3-Asp-Npg-B5-Asp-Asp-Ala-Ala-Phe-Asn-PyrS2-3Thi-BztA-Gln-dAla-Ala]",Solubility (Solubility in PBS; Solubility (uM)): 45 µM
1.89,50,"CC(=O)N1CCC[C@]12CC=CCCCC1(CCCC=CCCCOC(=O)N3CC[C@@](C(=O)N[C@@H](Cc4ccsc4)C(=O)N[C@@H](Cc4csc5ccccc45)C(=O)N[C@@H](CCC(N)=O)C(=O)N[C@H](C)C(=O)N[C@H](C)C(=O)N[C@H](C)C(N)=O)(C3)NC(=O)[C@H](CC(N)=O)NC(=O)[C@H](Cc3ccccc3)NC(=O)[C@H](C)NC(=O)[C@H](C)NC(=O)[C@H](CC(=O)O)NC(=O)[C@H](CC(=O)O)NC1=O)NC(=O)[C@H](CC(C)(C)C)NC(=O)[C@H](CC(=O)O)NC2=O (stereo partly drawn) [I-872, Ac-PL3-Asp-Npg-B5-Asp-Asp-Ala-Ala-Phe-Asn-PyrS2-3Thi-BztA-Gln-dAla-dAla]",–
2,–,"CC(=O)N1CCC[C@]12CC=CCCCC1(CCCC=CCCCOC(=O)N3CC[C@@](C(=O)N[C@@H](Cc4ccsc4)C(=O)N[C@@H](Cc4csc5ccccc45)C(=O)N[C@@H](CCC(N)=O)C(=O)N[C@@H](C)C(=O)N[C@@H](C)C(=O)N[C@H](C)C(N)=O)(C3)NC(=O)[C@H](CC(N)=O)NC(=O)[C@H](Cc3ccccc3)NC(=O)[C@H](C)NC(=O)[C@H](C)NC(=O)[C@H](CC(=O)O)NC(=O)[C@H](CC(=O)O)NC1=O)NC(=O)[C@H](CC(C)(C)C)NC(=O)[C@H](CC(=O)O)NC2=O (stereo partly drawn) [I-873, Ac-PL3-Asp-Npg-B5-Asp-Asp-Ala-Ala-Phe-Asn-PyrS2-3Thi-BztA-Gln-Ala-Ala]",Solubility (Solubility in PBS; Solubility (uM)): 47 µM
2.31,50,"CC(=O)N1CCC[C@]12CC=CCCCC1(CCCC=CCCCCCC[C@@](C)(C(=O)N[C@@H](Cc3ccsc3)C(=O)N[C@@H](Cc3csc4ccccc34)C(=O)N[C@@H](CCC(N)=O)C(=O)N[C@@H](C)C(=O)N[C@@H](C)C(=O)N[C@@H](C)C(N)=O)NC(=O)[C@H](CC(N)=O)NC(=O)[C@H](Cc3ccccc3)NC(=O)[C@H](C)NC(=O)[C@H](C)NC(=O)[C@H](CC(=O)O)NC(=O)[C@H](CC(=O)O)NC1=O)NC(=O)[C@H](CC(C)(C)C)NC(=O)[C@H](CC(=O)O)NC2=O (stereo partly drawn) [I-874, Ac-PL3-Asp-Npg-B5-Asp-Asp-Ala-Ala-Phe-Asn-S8-3Thi-BztA-Gln-Ala-Ala]",–
2.26,50,"CC(=O)N1CCC[C@]12CC=CCCCC1(CCCC=CCCCCCC[C@@](C)(C(=O)N[C@@H](Cc3ccsc3)C(=O)N[C@@H](Cc3csc4ccccc34)C(=O)N[C@@H](CCC(N)=O)C(=O)N[C@H](C)C(=O)N[C@H](C)C(=O)N[C@H](C)C(N)=O)NC(=O)[C@H](CC(N)=O)NC(=O)[C@H](Cc3ccccc3)NC(=O)[C@H](C)NC(=O)[C@H](C)NC(=O)[C@H](CC(=O)O)NC(=O)[C@H](CC(=O)O)NC1=O)NC(=O)[C@H](CC(C)(C)C)NC(=O)[C@H](CC(=O)O)NC2=O (stereo partly drawn) [I-876, Ac-PL3-Asp-Npg-B5-Asp-Asp-Ala-Ala-Phe-Asn-S8-3Thi-BztA-Gln-dAla-dAla]",–
2.35,50,"CC(=O)N1CCC[C@]12CC=CCCCC1(CCCC=CCCCCCC[C@@](C)(C(=O)N[C@@H](Cc3ccsc3)C(=O)N[C@@H](Cc3csc4ccccc34)C(=O)N[C@@H](CCC(N)=O)C(=O)N[C@@H](C)C(=O)N[C@@H](C)C(=O)N[C@H](C)C(N)=O)NC(=O)[C@H](CC(N)=O)NC(=O)[C@H](Cc3ccccc3)NC(=O)[C@H](C)NC(=O)[C@H](C)NC(=O)[C@H](CC(=O)O)NC(=O)[C@H](CC(=O)O)NC1=O)NC(=O)[C@H](CC(C)(C)C)NC(=O)[C@H](CC(=O)O)NC2=O (stereo partly drawn) [I-877, Ac-PL3-Asp-Npg-B5-Asp-Asp-Ala-Ala-Phe-Asn-S8-3Thi-BztA-Gln-Ala-Ala]",–
–,33,"COCCOCCC(=O)NCCCC[C@@H]1NC(=O)[C@H](C)NC(=O)[C@H](CC(=O)O)NC(=O)[C@H](CC(=O)O)NC(=O)C2(CCCC=CCCCOC(=O)N3CC[C@@](C(=O)N[C@@H](Cc4ccsc4)C(=O)N[C@@H](Cc4csc5ccccc45)C(=O)N[C@@H](CCC(N)=O)C(N)=O)(C3)NC(=O)[C@H](CC(N)=O)NC(=O)[C@H](Cc3ccccc3)NC1=O)CCCC=CC[C@]1(CCCN1C(C)=O)C(=O)N[C@@H](CC(=O)O)C(=O)N[C@@H](CC(C)(C)C)C(=O)N2 (stereo partly drawn) [I-892, Ac-PL3-Asp-Npg-B5-Asp-Asp-Ala-[mPEG2]Lys-Phe-Asn-PyrS2-3Thi-BztA-Gln-NH2]",CHI Log D (CHI Log D procedure): 1.475
